Laboratory results reported in patent US20240345008A1 (Eth Zurich, priority 2021, published 2024).
Each block holds one molecule with its values, some of them ahead of it. No end group written: not given here.

Key:
K-Ras protein = K-Ras protein (Homo sapiens, UniProt P01116); experiment: photo-CIDNP enhanced NMR ligand-target binding with spinlock, small molecules vs K-Ras protein; conditions: 500 μM ligand, 25 μM fluorescein, 100 μM K-Ras, 450 nm, 1 W, 2 s, spinlock 200 ms
[1] = biological target: PIN1 protein (peptidyl-prolyl cis-trans isomerase NIMA-interacting 1) (Homo sapiens, UniProt Q13526); experiment: photo-CIDNP enhanced NMR ligand-target binding, small molecules vs PIN1 protein; conditions: 100 μM ligand, 25 μM fluorescein, 50 μM PIN1 (ligand 3-4: 25 μM ligand, 15 μM fluorescein, 25 μM PIN1), 450 nm, 1 W, 2 s
PIN1 protein = PIN1 protein (Homo sapiens, UniProt Q13526); experiment: prior knowledge / verification of PIN1 binding (Potter et al. 2010; verification); conditions: method of verification not stated
PDZ protein domain [2] = experiment: photo-CIDNP enhanced NMR ligand-target binding, peptides vs PDZ protein domain (sample A vs B); conditions: 100 μM peptide, 25 μM fluorescein, PDZ 100 μM, 450 nm, 1 W, 4 s, no spin lock
PDZ protein domain [3] = experiment: photo-CIDNP NMR titration for dissociation constant of peptide ligand to PDZ protein domain; type: binding; conditions: 47 μM peptide, 25 μM fluorescein, series of PDZ concentrations and irradiation times, 450 nm, fit of equations (7) and (6)
PDZ protein domain [4] = experiment: photo-CIDNP enhanced 1H NMR titration, 47 µM peptide against a series of PDZ domain concentrations, fit of equations (7) and (6)

Sequence of PIN1 protein (peptidyl-prolyl cis-trans isomerase NIMA-interacting 1) (Q13526 whole entry, species assumed): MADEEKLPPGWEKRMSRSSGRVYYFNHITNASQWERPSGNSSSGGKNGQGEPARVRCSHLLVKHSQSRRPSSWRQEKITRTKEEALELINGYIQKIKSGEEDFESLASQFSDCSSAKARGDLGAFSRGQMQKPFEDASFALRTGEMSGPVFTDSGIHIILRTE
Sequence of PIN1 protein (Q13526 whole entry, species assumed, the tested form may be a part): as the sequence (Q13526 whole entry, species assumed) above

Molecule: Cc1cccc(-c2nc(C(=O)O)c(C)[nH]2)c1 [ligand 3-1, 5-methyl-2-(3-methylphenyl)-imidazole-4-carboxylic acid]
- binding to the target PIN1 (signal modified in presence of target) [1]: bound to the target PIN1

Molecule: Cc1ccc2[nH]cc(C(=O)O)c2c1 [ligand 3-2, 5-methyl-indole-3-carboxylic acid]
- binding to the target PIN1 (signal modified in presence of target) [1]: bound to the target PIN1

Molecule: N[C@@H](Cc1c[nH]c2ccccc12)C(=O)O [ligand 3-3, tryptophan]
- binding to the target PIN1 (signal modified in presence of target) [1]: did not bind
- verification of binding to PIN1 (PIN1 protein): verified to not bind to PIN1

Molecule: O=C1NCCCc2c1oc1ccc(O)cc21 [ligand 3-4, 4-hydroxy-8-oxa-11-azatricyclo[7.5.0.0^2,7]tetradeca-1 (9),2,4,6-tetraen-10-one]
- binding to the target PIN1 (signal modified in presence of target) [1]: bound to the target PIN1

Molecule: O=C(O)Cc1c[nH]c2ccccc12 [ligand 4-4, indoleacetic acid]
- binding to the target K-Ras (signal modified in presence of target) (K-Ras protein): did not bind

Molecule: WEQLT (Peptide 3)
- binding to the target PDZ (signal modified in presence of target) (PDZ protein domain [2]): did not bind

Molecule: WVSAV [Peptide 1]
- Kd (PDZ protein domain [3]): 7 µM
- binding to the target PDZ (signal modified in presence of target) (PDZ protein domain [2]): binding to the target PDZ

Molecule: WVSAV-NH2 [Peptide 4]
- binding to the target PDZ (signal modified in presence of target) (PDZ protein domain [2]): did not bind

Molecule: WVSAV [Peptide 1 (WVSAV)]
- Kd (PDZ protein domain [4]): 7 µM

Second part, the molecule after the results:

- binding to the target K-Ras (signal modified in presence of target) (K-Ras protein): bound to the target K-Ras
Molecule: 5 N-(Furan-2-ylmethyl)-1H-benzimidazol-2-amine)-imidazole-4-carboxylic acid [ligand 4-1]

- binding to the target K-Ras (signal modified in presence of target) (K-Ras protein): bound to the target K-Ras
Molecule: COc1ccc(C)cc1NC(=O)Nn1cnnc1 [ligand 4-3, N-(2-methoxy-5-methylphenyl)-N′-4H-1,2,4-triazol-4-ylurea]
